# Experimental data published in US8519007B2, “Use certain diterpene compounds in the treatment of androgen receptor-associated diseases” (Academia Sinica, priority 2008, dated 2013).
# Like-named read-outs stand apart in the source and are kept apart here.
# Tests used:
# [1] = HDHS levels in plasma and tumors of treated nude mice (HPLC); format: in vivo; settings: 24 h after the last of 24 doses; for concentration at 24 h after the last dose: athymic (nu/nu) nude, mouse, in vivo, read-out: HDHS level in plasma
# Description: 22Rv1 cells were derived from a castration-relapsed tumor of human PCa origin that represents a clinical limitation for hormonal therapy (Nagabhushan M, et al., Cancer Res 1996;56:3042-6; Sramkoski R M, et al., In Vitro Cell Dev Biol Anim 1999; 35:403-9). The potential of HDHS to inhibit growth of PCa in vivo was tested in athymic nude mice with 22Rv1 tumors. […]. All animal work was done in accordance with the protocol approved by the Institutional Animal Care and Use Committee, Academia Sinica. Aliquots of 1×10^6 22Rv1 cells were suspended in 1:1 PBS mixed with Matrigel (BD Biosciences, San Jose, Calif.) and were subcutaneously inoculated into the right flank of each mouse. Once the tumor grew to palpable size one week after 22Rv1 cells were implanted, mice were stochastically assigned to three groups (n=7) that received vehicle control or HDHS at different dosages (0.5 and 2.5 mg/kg/day), by gavage in 0.2 mL of PBS containing 10% DMSO. Tumors were measured twice per week using calipers and their volumes calculated using a standard formula, as follows: width2×length×0.5. Body weight was measured weekly. Mice received 24 doses, and 24 h after the last dose they were sacrificed to harvest plasma and tumors. A portion of each tumor was snap-frozen in liquid nitrogen and stored at −80° C. until needed for western blot analysis of relevant biomarkers, and the remainder was fixed in 10% formalin overnight.
# In order to further understand the dose-effect relationships, the attainable levels of HDHS in plasma and tumors were detected 24 h after the last dose of HDHS regimen in the tested mice. […]. These increases of HDHS concentrations in plasma and tumors were dose-dependent and consistent with the extent of tumor suppression (FIGS. 6A and B).
# [2] = system: LNCaP cells; assay: Western blot of caspases, PARP, p53 and Bcl-xL; format: cell-based, human; settings: 10 μM
# Description: (§1) During apoptosis, various caspases are activated which are involved in the cleavage and […] a range of cellular substrates, including […] the DNA repair enzyme PARP (Herceg Z et al., Mol Cell Biol 1999;10:5124-33; Okada H et al., Nat Rev Cancer 2004; 4:592-603). In the presence of 10 μM HDHS, PARP cleavage was observed, and at the same time caspase-3 and -7 were activated by proteolytic cleavage (FIG. 4B, lane 5). […] In contrast, activation of caspase-3 and -7 or cleavage of PARP were not detected in PC-3 cells treated with 10 μM HDHS for 24 h (FIG. 4B, lane 10). Tumor suppressor p53 is a control for the G1 checkpoint and cell apoptosis, and LNCaP cells express wild-type p53 (van Bokhoven A et al., Prostate 2003; 57:205-25).
# [3] = target: T1, androgen receptor (Homo sapiens, UniProt P10275); assay: PSA promoter luciferase reporter assay in 103E cells (AR transcriptional activity)
# T1 sequence (P10275 with tags, fused parts or gaps DUP590-628/H875Y): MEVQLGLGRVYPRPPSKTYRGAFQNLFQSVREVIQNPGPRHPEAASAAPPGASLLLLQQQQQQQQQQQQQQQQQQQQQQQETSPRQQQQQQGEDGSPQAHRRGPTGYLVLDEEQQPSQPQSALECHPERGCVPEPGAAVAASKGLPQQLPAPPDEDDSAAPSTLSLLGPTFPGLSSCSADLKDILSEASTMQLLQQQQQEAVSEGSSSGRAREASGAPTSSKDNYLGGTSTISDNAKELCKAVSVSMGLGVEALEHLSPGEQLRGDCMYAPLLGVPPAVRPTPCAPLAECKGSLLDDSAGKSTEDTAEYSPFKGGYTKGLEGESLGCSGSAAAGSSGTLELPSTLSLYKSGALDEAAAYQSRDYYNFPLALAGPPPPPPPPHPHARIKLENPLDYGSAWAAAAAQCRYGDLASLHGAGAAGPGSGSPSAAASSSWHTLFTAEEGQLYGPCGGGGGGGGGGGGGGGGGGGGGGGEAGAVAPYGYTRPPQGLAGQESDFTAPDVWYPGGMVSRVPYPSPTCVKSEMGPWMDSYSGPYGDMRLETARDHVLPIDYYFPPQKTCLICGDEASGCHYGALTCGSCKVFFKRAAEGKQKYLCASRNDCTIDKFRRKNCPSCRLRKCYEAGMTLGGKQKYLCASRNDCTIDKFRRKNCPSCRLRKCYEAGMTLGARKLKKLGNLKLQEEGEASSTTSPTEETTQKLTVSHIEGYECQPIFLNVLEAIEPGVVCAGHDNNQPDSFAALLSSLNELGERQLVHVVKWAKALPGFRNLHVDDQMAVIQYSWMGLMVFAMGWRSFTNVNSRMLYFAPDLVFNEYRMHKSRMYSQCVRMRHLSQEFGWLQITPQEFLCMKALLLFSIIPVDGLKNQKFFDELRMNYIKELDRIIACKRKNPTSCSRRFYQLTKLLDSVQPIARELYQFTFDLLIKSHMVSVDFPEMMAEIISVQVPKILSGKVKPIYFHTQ
# Description: PC-3 and NIH-3T3 were cultured in DMEM (Hyclone) supplemented with 10% FBS. Cultures were maintained in a humidified incubator at 37° C. in 5% CO2/air.
# Cells were treated with various compounds for a period of 20 h and luciferase activity was measured using a luciferase reporter gene assay system (Promega).
# [4] = system: PC-3 cells; assay: Apoptosis by nucleosome release (cytoplasmic DNA fragmentation); format: cell-based, human; settings: PC-3, 5-10 μM, 24 h
# Description: (§2) FIGS. 4A-B. HDHS induces apoptosis in AR-dependent PCa cells. A, Apoptosis of cytoplasmic DNA fragmentation in different cell lines treated with vehicle or indicated concentrations of HDHS for 24 h. Difference between the indicated pair of treatments was tested for statistic significance as marked. *, P≦0.05; **, P≦0.01. B, Activation of caspases and PARP in HDHS-induced apoptosis of LNCaP cells.
# (§3) In light of the increase of sub-G1 populations by HDHS, apoptosis in treated cells was further analyzed via measurement of nucleosome release in PCa cells. […] 22Rv1 cells with AR expression are ablation-resistant but respond to androgen stimulation; HDHS led to their apoptosis.
# [5] = system: LNCaP cells; assay: as above; format: cell-based, human; settings: 5-10 μM, 24 h
# Description: as §2, §3
# [6] = system: PC-3 cells; assay: Western blot of caspases and PARP; format: cell-based, human; settings: PC-3, 10 μM, 24 h
# Description: as §1
structure (smiles),measurement,setting,value
"CC(C)c1cc2c(cc1O)[C@@]1(C)CCCC(C)(C)C1=C(O)C2=O [Compound 2, 6,12-dihydroxyabieta-5,8,11,13-tetraen-7-one]",concentration at 24 h after the last dose,[1]; oral 0.5 mg/kg,450 ± 140 nM
same,concentration at 24 h after the last dose,[1]; oral 2.5 mg/kg,1450 ± 300 nM
same,HDHS level in tumor tissues,[1]; oral 0.5 mg/kg,98.45 ± 19.80 nmol/g
same,HDHS level in tumor tissues,[1]; oral 2.5 mg/kg,154.93 ± 12.97 nmol/g
same,PARP cleavage,[2],observed
same,caspase-3 and -7 proteolytic cleavage,[2],activated
same,decrease of anti-apoptotic regulator Bcl-xL level,[2]; 24 h,~50%
same,increase in p53,[2]; 24 h,3 fold
same,concentration achieving complete inhibition of PSA promoter activity,"[3]; 10 nmol/L DHT, 24 h",greater than 10 μM
same,Inhibitionmax (%) of AR activity,[3]; maximal inhibition at 10 μM,101 ± 4% (10 μM)
same,IC50,"[3]; read-out: IC50 for inhibiting DHT-induced PSA-luciferase reporter, cotreated with 10 nmol/L DHT, 24 h",4.8 µM
same,apoptosis (nucleosome release),[4],not in PC-3 cells
same,apoptosis (nucleosome release),[5],significantly induced
same,activation of caspase-3 and -7 or cleavage of PARP,[6],not detected
